In PubChem BioAssay (NCI):
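Five compound concentrations were applied to cells in 96-well plates for 48 hours; endpoints were derived by simple linear interpolation of the resulting dose-response curve. TGI denotes the concentration required for complete inhibition of growth.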

Experiments:
Assay in all cases: inhibition of tumour cell growth, NCI panel, 48 h
MDA-MB-231 breast = tested on: MDA-MB-231 breast
NCI-H226 lung = tested on: NCI-H226 lung
LOX IMVI melanoma = tested on: LOX IMVI melanoma
A498 renal = tested on: A498 renal
SK-MEL-28 melanoma = tested on: SK-MEL-28 melanoma
SK-MEL-2 melanoma = tested on: SK-MEL-2 melanoma
RXF 393 renal = tested on: RXF 393 renal
K-562 leukemia = tested on: K-562 leukemia
786-0 renal = tested on: 786-0 renal
HOP-92 NSCLC = tested on: HOP-92 NSCLC
RPMI-8226 leukemia = tested on: RPMI-8226 leukemia
SK-MEL-5 melanoma = tested on: SK-MEL-5 melanoma
OVCAR-3 ovarian = tested on: OVCAR-3 ovarian
HT29 colon = tested on: HT29 colon
OVCAR-4 ovarian = tested on: OVCAR-4 ovarian
CAKI-1 renal = tested on: CAKI-1 renal
PC-3 prostate = tested on: PC-3 prostate
MOLT-4 leukemia = tested on: MOLT-4 leukemia
UACC-257 melanoma = tested on: UACC-257 melanoma
OVCAR-5 ovarian = tested on: OVCAR-5 ovarian
UACC-62 melanoma = tested on: UACC-62 melanoma
SNB-19 CNS = tested on: SNB-19 CNS
HOP-62 NSCLC = tested on: HOP-62 NSCLC
CCRF-CEM leukemia = tested on: CCRF-CEM leukemia
T-47D breast = tested on: T-47D breast
MCF7 breast = tested on: MCF7 breast
COLO 205 colon = tested on: COLO 205 colon
ACHN renal = tested on: ACHN renal
OVCAR-8 ovarian = tested on: OVCAR-8 ovarian
EKVX NSCLC = tested on: EKVX NSCLC
IGROV1 ovarian = tested on: IGROV1 ovarian
HS 578T breast = tested on: HS 578T breast
U251 CNS = tested on: U251 CNS
M14 melanoma = tested on: M14 melanoma
MDA-N = tested on: MDA-N
SK-OV-3 ovarian = tested on: SK-OV-3 ovarian
DU-145 prostate = tested on: DU-145 prostate
SF-539 CNS = tested on: SF-539 CNS
UO-31 renal = tested on: UO-31 renal
NCI-H522 lung = tested on: NCI-H522 lung
NCI-H460 lung = tested on: NCI-H460 lung
KM12 colon = tested on: KM12 colon
SR leukemia = tested on: SR leukemia
NCI/ADR-RES ovarian = tested on: NCI/ADR-RES ovarian
MDA-MB-435 = tested on: MDA-MB-435
SF-268 CNS = tested on: SF-268 CNS
A549 NSCLC = tested on: A549 NSCLC
NCI-H23 lung = tested on: NCI-H23 lung
SF-295 CNS = tested on: SF-295 CNS
SW-620 colon = tested on: SW-620 colon
TK-10 renal = tested on: TK-10 renal
HCT-116 colon = tested on: HCT-116 colon
MALME-3M melanoma = tested on: MALME-3M melanoma
HCC-2998 colon = tested on: HCC-2998 colon
HL-60(TB) leukemia = tested on: HL-60(TB) leukemia
BT-549 breast = tested on: BT-549 breast
HCT-15 colon = tested on: HCT-15 colon
SN12C renal = tested on: SN12C renal
SNB-75 CNS = tested on: SNB-75 CNS

With CN(C)CCCn1c(Cc2ccc(Cl)cc2)nc2cc(C(F)(F)F)ccc21 the TGI (MDA-MB-231 breast) was 26.5 µM, the TGI (NCI-H226 lung) was 36.4 µM and the TGI (LOX IMVI melanoma) was 29.7 µM. It also gave a TGI (A498 renal) of 25.5 µM, a TGI (SK-MEL-28 melanoma) of 33.5 µM and a TGI (SK-MEL-2 melanoma) of 31 µM. The TGI (RXF 393 renal) was 22.7 µM, the TGI (K-562 leukemia) was over 32.5 µM and the TGI (786-0 renal) was 27 µM. The TGI (HOP-92 NSCLC) was 22.9 µM, the TGI (RPMI-8226 leukemia) was over 100 µM and the TGI (SK-MEL-5 melanoma) was 32.5 µM. It also gave a TGI (OVCAR-3 ovarian) of 27.6 µM, a TGI (HT29 colon) of 29.8 µM and a TGI (OVCAR-4 ovarian) of 27.6 µM. For the same compound, the TGI (CAKI-1 renal) was 27.3 µM, the TGI (PC-3 prostate) was 29 µM and the TGI (MOLT-4 leukemia) was 34.5 µM. For the same compound, the TGI (UACC-257 melanoma) was 30.1 µM, the TGI (OVCAR-5 ovarian) was 32.5 µM and the TGI (UACC-62 melanoma) was 31.2 µM. The TGI (SNB-19 CNS) was 30.8 µM, the TGI (HOP-62 NSCLC) was 28.8 µM and the TGI (CCRF-CEM leukemia) was over 43.7 µM. The TGI (T-47D breast) was 27.2 µM, the TGI (MCF7 breast) was 27.6 µM and the TGI (COLO 205 colon) was 29.3 µM. For the same compound, the TGI (ACHN renal) was 26 µM, the TGI (OVCAR-8 ovarian) was 33.4 µM and the TGI (EKVX NSCLC) was 32.7 µM. It also gave a TGI (IGROV1 ovarian) of 27.3 µM, a TGI (HS 578T breast) of 33.6 µM and a TGI (U251 CNS) of 28.6 µM. For the same compound, the TGI (M14 melanoma) was 25.6 µM, the TGI (MDA-N) was 25.4 µM and the TGI (SK-OV-3 ovarian) was 28.2 µM. For the same compound, the TGI (DU-145 prostate) was 27.2 µM, the TGI (SF-539 CNS) was 32.2 µM and the TGI (UO-31 renal) was 1 µM. The TGI (NCI-H522 lung) was 28.1 µM, the TGI (NCI-H460 lung) was 26 µM and the TGI (KM12 colon) was 28.1 µM. For the same compound, the TGI (SR leukemia) was over 100 µM, the TGI (NCI/ADR-RES ovarian) was 33.6 µM and the TGI (MDA-MB-435) was 26.6 µM. The TGI (SF-268 CNS) was 29.1 µM, the TGI (A549 NSCLC) was 32.8 µM and the TGI (NCI-H23 lung) was 31.4 µM. It also gave a TGI (SF-295 CNS) of 31.4 µM, a TGI (SW-620 colon) of over 57.8 µM and a TGI (TK-10 renal) of 29.6 µM. The TGI (HCT-116 colon) was 25 µM, the TGI (MALME-3M melanoma) was 24 µM and the TGI (HCC-2998 colon) was 3.85 µM. It also gave a TGI (HL-60(TB) leukemia) of 61.9 µM, a TGI (BT-549 breast) of 32.4 µM and a TGI (HCT-15 colon) of 32.8 µM. For the same compound, the TGI (SN12C renal) was 29.4 µM.
In the case of COc1cc(C2SCC(=O)N2c2ccc(-n3c(-c4ccccc4)nc4ccccc4c3=O)cc2)cc(OC)c1OC (stereo not given), the TGI (MDA-MB-231 breast) is reported as over 100 µM, the TGI (LOX IMVI melanoma) is reported as over 100 µM and the TGI (A498 renal) is reported as over 100 µM. The TGI (SK-MEL-28 melanoma) was over 100 µM, the TGI (SK-MEL-2 melanoma) was over 100 µM and the TGI (K-562 leukemia) was over 100 µM. It also gave a TGI (786-0 renal) of over 100 µM, a TGI (HOP-92 NSCLC) of 84.2 µM and a TGI (RPMI-8226 leukemia) of over 100 µM. For the same compound, the TGI (SK-MEL-5 melanoma) was over 100 µM, the TGI (OVCAR-3 ovarian) was over 100 µM and the TGI (HT29 colon) was over 100 µM. For the same compound, the TGI (OVCAR-4 ovarian) was over 100 µM, the TGI (CAKI-1 renal) was over 100 µM and the TGI (PC-3 prostate) was over 100 µM. For the same compound, the TGI (MOLT-4 leukemia) was over 100 µM, the TGI (UACC-257 melanoma) was over 100 µM and the TGI (OVCAR-5 ovarian) was over 100 µM. It also gave a TGI (UACC-62 melanoma) of over 100 µM, a TGI (SNB-19 CNS) of over 100 µM and a TGI (HOP-62 NSCLC) of over 100 µM. For the same compound, the TGI (CCRF-CEM leukemia) was over 100 µM, the TGI (T-47D breast) was over 100 µM and the TGI (MCF7 breast) was over 100 µM. It also gave a TGI (COLO 205 colon) of over 100 µM, a TGI (ACHN renal) of over 100 µM and a TGI (OVCAR-8 ovarian) of over 100 µM. The TGI (EKVX NSCLC) was over 100 µM, the TGI (IGROV1 ovarian) was over 100 µM and the TGI (HS 578T breast) was over 100 µM. It also gave a TGI (U251 CNS) of over 100 µM, a TGI (MDA-N) of over 100 µM and a TGI (SK-OV-3 ovarian) of over 100 µM. It also gave a TGI (DU-145 prostate) of over 100 µM, a TGI (SF-539 CNS) of over 100 µM and a TGI (UO-31 renal) of 71.4 µM. It also gave a TGI (NCI-H522 lung) of over 100 µM, a TGI (NCI-H460 lung) of over 100 µM and a TGI (KM12 colon) of over 100 µM. The TGI (SR leukemia) was over 100 µM, the TGI (NCI/ADR-RES ovarian) was over 100 µM and the TGI (MDA-MB-435) was over 100 µM. For the same compound, the TGI (SF-268 CNS) was over 100 µM, the TGI (A549 NSCLC) was over 100 µM and the TGI (NCI-H23 lung) was over 100 µM. The TGI (SF-295 CNS) was over 100 µM, the TGI (SW-620 colon) was over 100 µM and the TGI (TK-10 renal) was over 100 µM. For the same compound, the TGI (HCT-116 colon) was over 100 µM, the TGI (HCC-2998 colon) was over 100 µM and the TGI (HL-60(TB) leukemia) was over 100 µM. It also gave a TGI (BT-549 breast) of over 100 µM, a TGI (HCT-15 colon) of over 100 µM and a TGI (SN12C renal) of over 100 µM.
Compound COC(=O)[C@]12CC[C@H]3CC[C@H]([C@H]31)[C@H](c1ccccc1)N2 has a TGI (MDA-MB-231 breast) of 30.6 µM, a TGI (NCI-H226 lung) of 31.6 µM and a TGI (LOX IMVI melanoma) of 32.1 µM. The TGI (A498 renal) was 31.9 µM, the TGI (SK-MEL-28 melanoma) was 52.2 µM and the TGI (SK-MEL-2 melanoma) was 28.8 µM. It also gave a TGI (RXF 393 renal) of 30.9 µM, a TGI (K-562 leukemia) of 53.4 µM and a TGI (786-0 renal) of 29.4 µM. For the same compound, the TGI (HOP-92 NSCLC) was 30.3 µM, the TGI (RPMI-8226 leukemia) was 47.9 µM and the TGI (SK-MEL-5 melanoma) was 27.9 µM. The TGI (OVCAR-3 ovarian) was 29.3 µM, the TGI (HT29 colon) was 29.5 µM and the TGI (OVCAR-4 ovarian) was 31.6 µM. It also gave a TGI (CAKI-1 renal) of 41.4 µM, a TGI (PC-3 prostate) of 38.7 µM and a TGI (MOLT-4 leukemia) of 56.5 µM. The TGI (UACC-257 melanoma) was 29.6 µM, the TGI (OVCAR-5 ovarian) was 31.4 µM and the TGI (UACC-62 melanoma) was 29.1 µM. For the same compound, the TGI (SNB-19 CNS) was 47.3 µM, the TGI (HOP-62 NSCLC) was 33.3 µM and the TGI (CCRF-CEM leukemia) was 95.9 µM. It also gave a TGI (T-47D breast) of 50.3 µM, a TGI (MCF7 breast) of 31.2 µM and a TGI (COLO 205 colon) of 30.8 µM. It also gave a TGI (ACHN renal) of 31.4 µM, a TGI (OVCAR-8 ovarian) of 37 µM and a TGI (EKVX NSCLC) of 33.1 µM. It also gave a TGI (IGROV1 ovarian) of 34.3 µM, a TGI (HS 578T breast) of 49.8 µM and a TGI (U251 CNS) of 31.4 µM. The TGI (M14 melanoma) was 32.7 µM, the TGI (MDA-N) was 34.9 µM and the TGI (SK-OV-3 ovarian) was 77.7 µM. For the same compound, the TGI (DU-145 prostate) was 47.8 µM, the TGI (SF-539 CNS) was 30.6 µM and the TGI (UO-31 renal) was 31.2 µM. The TGI (NCI-H522 lung) was 37.7 µM, the TGI (NCI-H460 lung) was 31.2 µM and the TGI (KM12 colon) was 39.8 µM. The TGI (SR leukemia) was 38.8 µM, the TGI (NCI/ADR-RES ovarian) was 33.4 µM and the TGI (MDA-MB-435) was 34.6 µM. For the same compound, the TGI (SF-268 CNS) was 41.5 µM, the TGI (A549 NSCLC) was 37.3 µM and the TGI (NCI-H23 lung) was 37.2 µM. The TGI (SF-295 CNS) was 32.3 µM, the TGI (SW-620 colon) was 53.2 µM and the TGI (TK-10 renal) was 32 µM. It also gave a TGI (HCT-116 colon) of 29.5 µM, a TGI (HCC-2998 colon) of 26.8 µM and a TGI (HL-60(TB) leukemia) of 47.6 µM. For the same compound, the TGI (BT-549 breast) was 34.3 µM, the TGI (SNB-75 CNS) was 58.1 µM and the TGI (HCT-15 colon) was 38.4 µM. The TGI (SN12C renal) was 29.5 µM.
